Calls of active or inactive are those of the source. The calls are words filed in the database; no cut-off is given here.
Experiments:
H9c2 [1] = assay: Cardioprotective activity against H2O2 induced myocardial damage in rat H9c2 cells harbouring Ad.GFP assessed as increase in cell viability at 8 uM by MTT assay; format: functional, cell-based
MGC-803 [2] = assay: Induction of apoptosis in human MGC-803 cells assessed as viable cells at 1 uM measured after 48 hrs by Annexin V-EGFP and PI staining based flow cytometry analysis (reference value: 92.3%); format: functional; details: read-out: Activity
[3] = Observed apparent volume of distribution in male Sprague-Dawley rat at 7 mg/kg,iv measured upto 8 hrs by UPLC-MS/MS analysis; format: ADME, organism-based; details: in vivo, read-out: Vz
Mus musculus [4] = assay: Cardioprotective activity against myocardial ischemia/reperfusion induced C57BL/6J mouse model assessed as effect on infarct size of mouse heart at 2.5 to 10 mg/kg by TTC staining based analysis; format: functional, organism-based; details: dose 2.5-10 mg/kg
Histone deacetylase 1 = Histone deacetylase 1 (Homo sapiens, UniProt Q13547); assay: Induction of thermal stabilization of HDAC1 in human MGC-803 cells at 48 degree C st 20 uM incubated for 4 hrs by CETSA; format: cell-based
H9c2 [5] = assay: Cardioprotective activity against H2O2 induced myocardial damage in rat H9c2 cells harbouring Ad.HDAC6 assessed as decrease in LDH leakage rate at 8 uM by absorbance based analysis; format: functional, cell-based
H9c2 [6] = assay: Cardioprotective activity against H2O2 induced myocardial damage in rat H9c2 cells harbouring Ad.HDAC6 assessed as increase in cell viability at 8 uM by MTT assay; format: functional, cell-based
H9c2 [7] = assay: Cardioprotective activity in H2O2 induced myocardial injury in rat H9c2 cells assessed as effect on beclin1 level at upto 8 uM by q-PCR analysis; format: functional, cell-based
[8] = Cmax in male Sprague-Dawley rat at 7 mg/kg,po measured upto 8 hrs by UPLC-MS/MS analysis; format: ADME, organism-based; details: in vivo
H9c2 [9] = assay: Cardioprotective activity in H2O2 induced myocardial injury in rat H9c2 cells assessed as decrease in cell contraction at 2 to 8 uM; format: functional, cell-based; details: dose 2-8 µM
[10] = Toxicity in C57BL/6 mouse assessed as lesions in myocardial tissue at 25 to 50 mg/kg, ip by H and E staining based analysis; format: organism-based; details: in vivo, dose 25-50 mg/kg
MGC-803 [11] = assay: Induction of apoptosis in human MGC-803 cells assessed as late apoptotic cells at 2 uM measured after 48 hrs by Annexin V-EGFP and PI staining based flow cytometry analysis (reference value: 3.16%); format: functional
PC-3 = assay: Antiproliferative activity against human PC-3 cells assessed as inhibition of cell growth by MTT assay
[12] = biological target: T1, Protein deacetylase HDAC6 (Mus musculus) (UniProt Q9Z2V5); assay: In vivo inhibition of HDAC6 in C57BL/6 mouse xenografted with MGC-803 cells assessed as effect on acetylated tubulin level at 25 to 50 mg/kg, ip by Western blot analysis; format: functional, organism-based; details: dose 25-50 mg/kg
T1 sequence (whole entry): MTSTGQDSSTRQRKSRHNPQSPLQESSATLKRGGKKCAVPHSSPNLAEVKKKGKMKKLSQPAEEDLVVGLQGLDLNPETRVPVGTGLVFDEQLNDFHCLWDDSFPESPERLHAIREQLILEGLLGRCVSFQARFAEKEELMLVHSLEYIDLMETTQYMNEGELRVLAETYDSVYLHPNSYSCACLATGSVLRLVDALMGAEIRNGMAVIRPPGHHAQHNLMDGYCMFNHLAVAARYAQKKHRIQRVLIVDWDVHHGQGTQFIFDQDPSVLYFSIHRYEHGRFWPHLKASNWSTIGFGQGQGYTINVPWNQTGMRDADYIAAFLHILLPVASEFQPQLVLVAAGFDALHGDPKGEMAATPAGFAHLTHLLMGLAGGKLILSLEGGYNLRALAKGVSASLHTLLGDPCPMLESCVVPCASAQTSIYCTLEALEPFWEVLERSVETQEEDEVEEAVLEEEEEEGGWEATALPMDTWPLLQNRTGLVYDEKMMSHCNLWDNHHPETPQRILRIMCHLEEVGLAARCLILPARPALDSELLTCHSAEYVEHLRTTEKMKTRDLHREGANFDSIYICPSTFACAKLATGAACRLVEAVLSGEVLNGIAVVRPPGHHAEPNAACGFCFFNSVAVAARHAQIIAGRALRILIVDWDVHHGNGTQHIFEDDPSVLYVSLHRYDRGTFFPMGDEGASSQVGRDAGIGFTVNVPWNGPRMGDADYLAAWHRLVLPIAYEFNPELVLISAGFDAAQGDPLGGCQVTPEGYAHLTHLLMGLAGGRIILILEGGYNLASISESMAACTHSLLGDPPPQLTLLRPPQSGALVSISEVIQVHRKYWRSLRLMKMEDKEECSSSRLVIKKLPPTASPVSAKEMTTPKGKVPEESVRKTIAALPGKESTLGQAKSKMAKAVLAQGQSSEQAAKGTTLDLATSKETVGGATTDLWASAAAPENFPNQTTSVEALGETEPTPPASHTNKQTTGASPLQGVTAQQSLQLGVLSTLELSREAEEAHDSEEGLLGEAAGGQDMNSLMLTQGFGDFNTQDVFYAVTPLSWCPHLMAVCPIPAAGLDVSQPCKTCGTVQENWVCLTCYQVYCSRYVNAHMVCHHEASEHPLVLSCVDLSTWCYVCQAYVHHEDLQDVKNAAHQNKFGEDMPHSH

H9c2 [13] = assay: Cardioprotective activity in H2O2 induced myocardial injury in rat H9c2 cells assessed as decrease in cell death at 2 to 8 uM; format: functional, cell-based; details: dose 2-8 µM
H9c2 [14] = assay: Cardioprotective activity in H2O2 induced myocardial injury in rat H9c2 cells assessed as cell viability by MTT assay; format: functional, cell-based; details: dose <= 8.0 µM
NCI-H460 = assay: Antiproliferative activity against human NCI-H460 cells assessed as inhibition of cell growth by MTT assay
[15] = Observed clearance in male Sprague-Dawley rat at 7 mg/kg,po measured upto 8 hrs by UPLC-MS/MS analysis; format: ADME, organism-based; details: in vivo
H9c2 [16] = assay: Cardioprotective activity in H2O2 induced myocardial injury in rat H9c2 cells assessed as effect on P62 level at upto 8 uM by q-PCR analysis; format: functional, cell-based
MGC-803 [17] = assay: Induction of apoptosis in human MGC-803 cells assessed as early apoptotic cells at 0.5 uM measured after 48 hrs by Annexin V-EGFP and PI staining based flow cytometry analysis (reference value: 0.66%); format: functional
H9c2 [18] = assay: Cardioprotective activity in H2O2 induced myocardial injury in rat H9c2 cells assessed as LDH release by absorbance based analysis; format: functional, cell-based; details: dose <= 8.0 µM
Mus musculus [19] = assay: Cardioprotective activity against myocardial ischemia/reperfusion induced C57BL/6J mouse model assessed as alleviation of leukocyte infiltration at 10 mg/kg by H and E staining based analysis; format: functional, organism-based
[20] = Half life in male Sprague-Dawley rat at 7 mg/kg,po measured upto 8 hrs by UPLC-MS/MS analysis; format: ADME, organism-based; details: in vivo
PANC-1 = assay: Antiproliferative activity against human PANC-1 cells assessed as inhibition of cell growth by MTT assay
[21] = Tmax in male Sprague-Dawley rat at 7 mg/kg,iv measured upto 8 hrs by UPLC-MS/MS analysis; format: ADME, organism-based; details: in vivo

Chain of Histone deacetylase 1 (Q13547 whole entry): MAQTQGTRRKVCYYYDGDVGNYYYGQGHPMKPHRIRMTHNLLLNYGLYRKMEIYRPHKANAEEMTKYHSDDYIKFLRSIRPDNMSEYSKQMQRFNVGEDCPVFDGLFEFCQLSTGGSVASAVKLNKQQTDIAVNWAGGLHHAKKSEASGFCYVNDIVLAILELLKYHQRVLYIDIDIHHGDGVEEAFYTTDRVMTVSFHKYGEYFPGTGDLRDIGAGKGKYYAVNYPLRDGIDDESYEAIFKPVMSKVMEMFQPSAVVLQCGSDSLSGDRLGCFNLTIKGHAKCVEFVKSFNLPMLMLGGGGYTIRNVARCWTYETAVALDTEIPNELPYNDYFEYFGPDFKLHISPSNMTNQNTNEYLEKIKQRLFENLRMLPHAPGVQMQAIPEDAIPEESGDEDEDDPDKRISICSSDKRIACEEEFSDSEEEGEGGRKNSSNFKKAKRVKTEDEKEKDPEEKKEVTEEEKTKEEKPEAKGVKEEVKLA

O=C(NO)c1ccc(CNC(=O)c2cc(-c3ccc(F)cc3)cn3ccnc23)cc1
Activity (H9c2 [1]): Active | viability at 1 µM (MGC-803 [2]): 77.2% | Vd [3]: 25.5 L/kg | Activity (Mus musculus [4]): inactive | Activity (Histone deacetylase 1): inactive | Activity (H9c2 [5]): Active | Activity (H9c2 [6]): Active | Activity (H9c2 [7]): inactive | Cmax [8]: 27.5 ng/mL | Activity (H9c2 [9]): Active | Activity [10]: Non-Toxic | Activity (MGC-803 [11]): 24.2% | IC50 (PC-3): > 10 µM | inhibition [12]: Active | Activity (H9c2 [13]): Active | Activity (H9c2 [14]): Active | IC50 (NCI-H460): > 10 µM | CL/F [15]: 1590 mL/min/kg | Activity (H9c2 [16]): inactive | Activity (MGC-803 [17]): 0.52% | Activity (H9c2 [18]): Active | Activity (Mus musculus [19]): Active | half-life [20]: 3.58 h | IC50 (PANC-1): 3.79 µM | Tmax [21]: 5 min

From ChEMBL document CHEMBL5550215, “Discovery of Novel Imidazo[1,2-a]pyridine-Based HDAC6 Inhibitors as an Anticarcinogen with a Cardioprotective Effect” (J Med Chem, 2024)
